Data taken from paper PMC8585833, “Serum concentrations of antidepressants, antipsychotics, and antiepileptics over the bariatric surgery procedure” (European Journal of Clinical Pharmacology, 2021).
Like-named read-outs stand apart in the source and are kept apart here.

Tests used:
[1] = Dose-adjusted steady-state trough serum concentrations before and after low-calorie diet and bariatric surgery; type: in vivo, human; details: for Change in dose-adjusted concentration over the pre-surgery low-calorie diet: after the pre-surgery diet, before surgery, median weight reduction 6 kg; for Course of dose-adjusted concentration after surgery: following the low-calorie diet; for Reduction of dose-adjusted concentration on the last day of sampling: post-surgery versus pre-surgery, substances with samples from six or more participants; for Concentration, Baseline: drug dose 10 mg
Source text: We designed the study as a naturalistic longitudinal, prospective case series with intra-individual comparisons of drug concentrations over time, before and up to 1 year after the surgical procedure.
The participants contributed blood samples to the current study during routine pre-surgery visits before, and post-surgery visits about 8 weeks, 6 months, and 1 year after, the surgery. Pre-surgery sampling generally occurred twice: at an initial preoperative assessment visit, and just before surgery. Between these visits, that is, before surgery, patients were required to adhere to a low-calorie diet and show a weight reduction. The samples were stored as serum in −80 °C at a biobank, and analysed after all samples had been collected.
Before every routine visit at which the sampling was to occur, we contacted the participants by telephone to systematically obtain information on the current dose as well as adherence to the drug treatment in question over the 2 preceding weeks. Samples were excluded from the data set if non-adherence less than four elimination half-lives prior to sampling was reported; exceptions were made for occasional missed doses of fluoxetine. Half-lives applied were those described for a drug or its metabolite in the summary of product characteristics. We also asked for and recorded concomitant drug treatment, weight, and smoking status. To be able to relate potential changes in concentration to health consequences, we asked the participants during the follow-up phone calls, using an open question, if anything had happened to their health since the last visit. To obtain trough blood concentrations, we strived to schedule the routine visits before lunchtime and the participants were instructed not to take morning tablets before the sampling.
Specific substances were analysed concomitantly, using clinical routine methods, at accredited laboratories at the Department of Clinical Chemistry, Sahlgrenska University Hospital, Gothenburg, Sweden, or (as for gabapentin, hydroxybupropion, mianserine, pregabalin, paroxetine and topiramate) at the Department of Clinical Pharmacology, St. Olav’s Hospital, Trondheim, Norway. Analysis methods were based on liquid chromatography/tandem mass spectrometry or (for lamotrigine and valproic acid) enzyme immunoassay.
Statistical analyses were performed using SPSS, version 23.0 (IBM SPSS Statistics for Windows, Armonk, NY, USA). Participants treated with the same substance before and after surgery, with one or more trough sample concentrations available, were included in the analysis. To allow interindividual and intraindividual comparisons, serum concentrations were adjusted for defined daily dose (DDD). For example, since DDD for citalopram is 20 mg, a DDD-adjusted citalopram concentration of 100 nmol/L could represent a measured concentration of 50, 100, or 200 nmol/L, given a daily dose of 10, 20, or 40 mg, respectively. To compare pre- to post-surgery concentrations, as well as pre- to post-diet concentrations, we used Wilcoxon signed rank test for substances with samples available for six or more individuals. We used Spearman’s correlation to explore the relationship between the ratio of the post-/pre-diet concentrations and (i) the distribution coefficient for the drug in question, i.e., the logarithm of the ratio of its concentration in a lipophilic and a hydrophilic solution (logD), as well as (ii) the weight loss in kilograms for pregabalin.

[2] = octanol/water, pH 7.4; source not stated; cited from earlier work
[3] = historical data or matched non-surgery subjects as controls; cited from earlier work
[4] = Table 2A, antiepileptics, trough serum, adjusted for dose in DDDs
[5] = Table 2A, antiepileptics, trough serum, adjusted for dose in DDDs, last observation carried forward, median 379 days after surgery
[6] = Table 2B, antiepileptics, trough serum, adjusted for dose in DDDs, after pre-surgery low-calorie diet
[7] = Table 2B, antiepileptics, trough serum, adjusted for dose in DDDs, before low-calorie diet
[8] = Table 2A, trough serum, adjusted for dose in DDDs
[9] = Table 2B, trough serum, adjusted for dose in DDDs, after pre-surgery low-calorie diet
[10] = Table 2B, trough serum, adjusted for dose in DDDs, before low-calorie diet

For `CCCC(CCC)C(=O)O` [Valproic acid], the “Dose-adjusted drug concentration Median (IQR), Pre-diet/pre-surgery” value [1, 4] was 533 (N/A) µmol/L, the “Dose-adjusted drug concentration Median (IQR), Post-surgery” value [1, 5] was 529 (N/A) µmol/L and the “Dose-adjusted drug concentration Median (IQR), post-diet” value [1, 6] was 759 (N/A) µmol/L. The “Dose-adjusted drug concentration Median (IQR), pre-diet” value [1, 7] was 737 (N/A) µmol/L.

In the case of `Nc1nnc(-c2cccc(Cl)c2Cl)c(N)n1` [Lamotrigine], the “Dose-adjusted drug concentration Median (IQR), Pre-diet/pre-surgery” value [1, 4] is reported as 17 (15–23) µmol/L, the “Dose-adjusted drug concentration Median (IQR), post-diet” value [1, 6] is reported as 23 (19–29) µmol/L and the “Dose-adjusted drug concentration Median (IQR), pre-diet” value [1, 7] is reported as 17 (15–25) µmol/L. The “Change in dose-adjusted concentration over the pre-surgery low-calorie diet” value (shortened to “Change in dose-adjusted concentration”) [1] was “increased” and the concentration at 379 days after surgery (median), trough ([1]; human, oral, Table 2A, antiepileptics, trough serum, adjusted for dose in DDDs, last observation carried forward, median 379 days after surgery, read-out: Dose-adjusted drug concentration Median (IQR), Post-surgery) was 18000 nM.

With `C[C@H]1NC(C)(C)CO[C@]1(O)c1cccc(Cl)c1` [Hydroxybupropion] the “Dose-adjusted drug concentration Median (IQR), Pre-diet/pre-surgery” value [1, 8] was 3,997 (N/A) nmol/L, the “Dose-adjusted drug concentration Median (IQR), Post-surgery” value ([1]; Table 2A, trough serum, adjusted for dose in DDDs, last observation carried forward, median 379 days after surgery) was 3,298 (N/A) nmol/L and the “Dose-adjusted drug concentration Median (IQR), post-diet” value [1, 9] was 3,067 (N/A) nmol/L. The “Dose-adjusted drug concentration Median (IQR), pre-diet” value [1, 10] was 2,732 (N/A) nmol/L.

With `CNCC[C@H](Oc1cccc2ccccc12)c1cccs1` [Duloxetine] the “Course of dose-adjusted concentration after surgery” value [1] was “continued to decrease”, the “Change in dose-adjusted concentration” value [1] was “varied” and the “Dose-adjusted drug concentration Median (IQR), Pre-diet/pre-surgery” value ([1]; human, in vivo) was 127 (96–203) nmol/L. The “Dose-adjusted drug concentration Median (IQR), post-diet” value ([1]; human, in vivo) was 105 (64–235) nmol/L, the “Dose-adjusted drug concentration Median (IQR), pre-diet” value ([1]; human, in vivo) was 127 (96–203) nmol/L and the concentration at 379 days after surgery (median), trough ([1]; human, in vivo) was 82 nM. For the same compound, the “Reduction of dose-adjusted concentration on the last day of sampling” value [1] was 35% and the logD [2] was 1.54.

For `COc1ccc(C(CN(C)C)C2(O)CCCCC2)cc1` (stereo not drawn) [Venlafaxine], the “Dose-adjusted drug concentration Median (IQR), Pre-diet/pre-surgery” value [1, 8] was 173 (88–443) nmol/L, the “Dose-adjusted drug concentration Median (IQR), post-diet” value [1, 9] was 132 (87–215) nmol/L and the “Dose-adjusted drug concentration Median (IQR), pre-diet” value [1, 10] was 172 (79–399) nmol/L. For the same compound, the concentration at 379 days after surgery (median), trough ([1]; human, oral, Table 2A, trough serum, adjusted for dose in DDDs, last observation carried forward, median 379 days after surgery, read-out: Dose-adjusted drug concentration Median (IQR), Post-surgery) was 168 nM.

For `COc1c(N2C[C@@H]3CCCN[C@@H]3C2)c(F)cc2c(=O)c(C(=O)O)cn(C3CC3)c12` [moxifloxacin], the “Concentration change after the bariatric surgery procedure” value [3] is listed as “appeared to increase”.

For `OCCOCCN1CCN(C2=Nc3ccccc3Sc3ccccc32)CC1` [Quetiapine], the “Change in dose-adjusted concentration” value [1] was “decreased”, the “Dose-adjusted drug concentration Median (IQR), Pre-diet/pre-surgery” value ([1]; human, in vivo) was 848 (N/A) nmol/L and the “Dose-adjusted drug concentration Median (IQR), post-diet” value ([1]; human, in vivo) was 260 (N/A) nmol/L. The “Dose-adjusted drug concentration Median (IQR), pre-diet” value ([1]; human, in vivo) was 848 (N/A) nmol/L and the “Dose-adjusted drug concentration Median (IQR), Post-surgery” value ([1]; human, in vivo, 379 days after surgery (median), trough) was 239 (N/A) nmol/L.

For `CNCCC(Oc1ccc(C(F)(F)F)cc1)c1ccccc1` (stereo not drawn) [Fluoxetine], the “Course of dose-adjusted concentration after surgery” value [1] was “continued to increase also after surgery”, the “Dose-adjusted drug concentration Median (IQR), Pre-diet/pre-surgery” value ([1]; human, in vivo) was 221 (157–371) nmol/L and the “Dose-adjusted drug concentration Median (IQR), post-diet” value ([1]; human, in vivo) was 263 (182–333) nmol/L. The “Dose-adjusted drug concentration Median (IQR), pre-diet” value ([1]; human, in vivo) was 259 (147–379) nmol/L and the concentration at 379 days after surgery (median), trough ([1]; human, in vivo) was 294 nM.

For `NCC1(CC(=O)O)CCCCC1` [Gabapentin], the “Dose-adjusted drug concentration Median (IQR), Pre-diet/pre-surgery” value [1, 4] was 34 (N/A) µmol/L, the “Dose-adjusted drug concentration Median (IQR), Post-surgery” value [1, 5] was 35 (N/A) µmol/L and the “Dose-adjusted drug concentration Median (IQR), post-diet” value [1, 6] was 43 (N/A) µmol/L. The “Dose-adjusted drug concentration Median (IQR), pre-diet” value [1, 7] was 28 (N/A) µmol/L and the “Change in dose-adjusted concentration” value [1] was “increased”.

For `CN(C)CCCC1(c2ccc(F)cc2)OCc2cc(C#N)ccc21` (stereo not drawn) [Citalopram], the “Concentration, Post-surgery” value ([1]; Case 1, GBP, day +252, drug dose 10 mg) was 69 nM, the “Concentration, Post-surgery” value ([1]; Case 1, GBP, day +374, drug dose 20 mg) was 158 nM and the “Concentration, Baseline” value ([1]; Case 1, GBP) was 137 nM. For the same compound, the “Concentration, Post-surgery” value ([1]; Case 2, GBP, day +178, drug dose 10 mg) was 42 nM, the “Concentration, Post-surgery” value ([1]; Case 2, GBP, day +386, drug dose 20 mg) was 90 nM and the “Concentration, Baseline” value ([1]; Case 2, GBP) was 89 nM. The “Reduction of dose-adjusted concentration on the last day of sampling” value [1] was 19%.
